According to US8017612B2, “Piperazine compound and use thereof as a HCV polymerase inhibitor” (priority 2006, dated 2011):
pIC50: −log10 of the molar value. Counter-ions that a name gives are not always drawn.

How the values were obtained:
[1] = target: T1, HCV polymerase (NS5B) type 1b (Hepatitis C virus genotype 1b, UniProt P26663); assay: Assay of enzyme (HCV polymerase) inhibitory activity, type 1b enzyme; type: biochemical, HCV BK strain (type 1b)
T1 construct: a region encoding NS5B (J Virol 1991 March, 65(3), 1105-13, 544 amino acids after deletion of 47 amino acids on the C-terminal); 6xHis (C); made in house; host or cells: Escherichia coli
From the text: (§1) The evaluation of the HCV polymerase inhibitory activity of the compound of the present invention is explained in the following. This polymerase is an enzyme coded for by the non-structural protein region called NS5B on the genome RNA of HCV.
(§2) i) Preparation of Enzyme (HCV Polymerase)
(§3) Using, as a template, a cDNA clone corresponding to the full length genome RNA of HCV BK strain (type 1b) obtained from the blood of a patient with hepatitis C, a region encoding NS5B (J Virol 1991 March, 65(3), 1105-13, 544 amino acids after deletion of 47 amino acids on the C-terminal) was amplified by PCR. The objective gene was prepared by adding a 6 His tag {base pair encoding 6 continuous histidine (His)} to the 3′ end thereof and transformed to Escherichia coli. The Escherichia coli capable of producing the objective protein was cultured. The obtained cells were suspended in a buffer solution and crushed in a microfluidizer. The supernatant was obtained by centrifugation and applied to various column chromatographys {mono-S, Sephacryl S-200 (Pharmacia)}, inclusive of metal chelate chromatography, to give a standard enzyme product.
(§4) ii) Synthesis of Substrate RNA
(§5) Using a synthetic primer designed based on the sequence of HCV genomic 3′ untranslated region, a DNA fragment (148 bp) containing polyU and 3′X sequence was entirely synthesized and cloned into plasmid pBluescript SK II(+) (Stratagene). The cDNA encoding full length NS5B, which was prepared in i) above, was digested with restriction enzyme KpnI to give a cDNA fragment containing the nucleotide sequence of from the restriction enzyme cleavage site to the termination codon. This cDNA fragment was inserted into the upstream of 3′ untranslated region of the DNA in pBluescript SK II(+) and ligated. The about 450 bp inserted DNA sequence was used as a template in the preparation of substrate RNA. This plasmid was cleaved immediately after the 3′X sequence, linearized and purified by phenol-chloroform treatment and ethanol precipitation to give DNA.
(§6) RNA was synthesized (37° C., 4 hr) by run-off method using this purified DNA as a template, a promoter of pBluescript SK II(+), MEGAscript RNA synthesis kit (Ambion) and T7 RNA polymerase. DNase I was added and the mixture was incubated for 1 hr. The template DNA was removed by decomposition to give a crude RNA product. This crude product was treated with phenol-chloroform and purified by ethanol precipitation to give the objective substrate RNA.
(§7) This RNA was applied to urea denaturation polyacrylamide gel electrophoresis to confirm the quality thereof and preserved at −80° C.
(§8) iii) Assay of Enzyme (HCV Polymerase) inhibitory activity
(§9) A test substance (compound of the present invention) and a reaction mixture (30 μl) having the following composition were reacted at 25° C. for 60 min.
(§10) 10% Trichloroacetic acid and 1% sodium pyrophosphate solution (150 μl) at 4° C. was added to this reaction mixture to stop the reaction. The reaction mixture was left standing at 4° C. for 15 min to insolubilize RNA. This RNA was trapped on a glass filter (PerkinElmer, GF/B) upon filtration by suction. This filter was washed with a solution containing 1% trichloroacetic acid and 0.1% sodium pyrophosphate, washed with 90% ethanol and dried. A liquid scintillation cocktail (PerkinElmer) was added and the radioactivity of RNA synthesized by the enzyme reaction was measured on a liquid scintillation counter.
The HCV polymerase inhibitory activity (IC50) of the compound of the present invention was calculated from the values of radioactivity of the enzyme reaction with and without the test substance.
Reaction mixture: HCV polymerase (type 1b 0.5 μg/ml or type 1a 1.5 μg/m) obtained in i), substrate RNA (5 μg/ml) obtained in ii), ATP (50 μM), GTP (50 μM), CTP (50 μM), UTP (2 μM), [5,6-^3H]UTP (30-60 Ci/mmol (Amersham Biosciences), 1 μCi) 20 mM Tris-HCl (pH 7.5), EDTA (1 mM), MgCl2 (5 mM), NaCl (50 mM), DTT (1 mM), BSA (0.01%)

[2] = target: T2, HCV polymerase (NS5B) type 1a (Hepatitis C virus genotype 1a, UniProt P26664); assay: Assay of enzyme (HCV polymerase) inhibitory activity, type 1a enzyme; type: biochemical, HCV type 1a (cloned from the blood of patients)
T2 construct: made in house; host or cells: Escherichia coli (by the 'similar method' of the 1b enzyme)
From the text: as §1, §2, §3
Standard enzyme products for type 1a (cloned from the blood of patients) were also obtained by a similar method.
as §4, §5, §6, §7, §8, §9, §10
The HCV polymerase inhibitory activity (IC50) of the compound of the present invention was calculated from the values of radioactivity of the enzyme reaction with and without the test substance. […]

[3] = HCV polymerase inhibitory activity (IC50), 1b, type 1b enzyme 0.5 μg/ml, 25° C., 60 min
[4] = HCV polymerase inhibitory activity (IC50), 1a, type 1a enzyme 1.5 μg/ml, 25° C., 60 min
[5] = HCV polymerase inhibitory activity IC50, 1b, type 1b enzyme
[6] = HCV polymerase inhibitory activity IC50, 1a, type 1a enzyme

SMILES | pIC50 [1, 3] | pIC50 [2, 4] | pIC50 [1, 5] | pIC50 [2, 6]
CC(=O)N1CCN(S(=O)(=O)c2ccc(Oc3ccc(Cl)cc3)cc2)C(C(=O)NCc2ccc(C(F)(F)F)cc2)C1 (stereo not shown) [Example 25, 4-acetyl-1-[4-(4-chloro-phenoxy)-benzenesulfonyl]-piperazine-2-carboxylic acid 4-trifluoromethyl-benzylamide] | < 6.00 | < 6.00 |  | 
CCC(F)(F)c1ccc(CNC(=O)[C@H]2CN(c3ccncn3)CCN2S(=O)(=O)c2ccc(OC(F)(F)F)cc2)cc1 [Example 580, (R)-4-pyrimidin-4-yl-1-(4-trifluoromethoxy-benzenesulfonyl)-piperazine-2-carboxylic acid 4-(1,1-difluoro-propyl)-benzylamide] | > 7.00 | > 7.00 |  | 
O=C(NCC1CC(c2ccccc2)C1)[C@H]1CN(c2nc3cn[nH]c(=O)c3s2)CCN1S(=O)(=O)c1ccc(OC(F)(F)F)cc1 (stereo partly drawn) [Example 899, (R)-4-(7-oxo-6,7-dihydro-thiazolo[4,5-d]pyridazin-2-yl)-1-(4-trifluoromethoxy-benzenesulfonyl)-piperazine-2-carboxylic acid (3-phenyl-cyclobutylmethyl)-amide] |  |  | 6.00 to 7.00 | < 6.00
CC(C)c1ccc(CNC(=O)[C@H]2CN(C(=O)NS(=O)(=O)c3ccccc3)CCN2S(=O)(=O)c2ccc(C(F)(F)F)cc2)cc1 [Example 265, (R)-4-benzenesulfonylaminocarbonyl-1-(4-trifluoromethyl-benzenesulfonyl)-piperazine-2-carboxylic acid 4-isopropyl-benzylamide] | < 6.00 | < 6.00 |  | 
CC(C)(C)c1ccc(CNC(=O)[C@H]2CN(c3cnc(CO)c(N)n3)CCN2S(=O)(=O)c2ccc(OC(F)(F)F)cc2)cc1 [Example 575, (R)-6′-amino-5′-hydroxymethyl-4-(4-trifluoromethoxy-benzenesulfonyl)-3,4,5,6-tetrahydro-2H-[1,2′]bipyrazinyl-3-carboxylic acid 4-tert-butyl-benzylamide] | > 7.00 | > 7.00 |  | 
O=C(NCc1ccc(OC(F)(F)F)cc1)[C@H]1CN(c2nc3nc(O)ncc3s2)CCN1S(=O)(=O)c1ccc(OC(F)(F)F)cc1 [Example 878, (R)-4-(5-hydroxy-thiazolo[4,5-d]pyrimidin-2-yl)-1-(4-trifluoromethoxy-benzenesulfonyl)-piperazine-2-carboxylic acid 4-trifluoromethoxy-benzylamide] |  |  | > 7.00 | > 7.00
Nc1ncc2sc(N3CCN(S(=O)(=O)c4ccc(OC(F)(F)F)cc4)[C@@H](C(=O)NCc4ccc(OC(F)(F)F)cc4)C3)nc2n1 [Example 943, (R)-4-(5-amino-thiazolo[4,5-d]pyrimidin-2-yl)-1-(4-trifluoromethoxy-benzenesulfonyl)-piperazine-2-carboxylic acid 4-trifluoromethoxy-benzylamide] |  |  | > 7.00 | > 7.00
Cc1nc(N2CCN(S(=O)(=O)c3ccc(C(C)C)cc3)[C@@H](C(=O)NCc3ccc(C(C)C)cc3)C2)sc1C(=O)O [Example 344, 2-[(R)-4-(4-isopropyl-benzenesulfonyl)-3-(4-isopropyl-benzylcarbamoyl)-piperazin-1-yl]-4-methyl-thiazole-5-carboxylic acid] | > 7.00 | > 7.00 |  | 
COc1ccc2nc(N3CCN(S(=O)(=O)c4ccc(OC(F)(F)F)cc4)[C@@H](C(=O)NCc4ccc(OC(F)(F)F)cc4)C3)sc2n1 [Example 1050, (R)-4-(5-methoxy-thiazolo[5,4-b]pyridin-2-yl)-1-(4-trifluoromethoxy-benzenesulfonyl)-piperazine-2-carboxylic acid 4-trifluoromethoxy-benzylamide] |  |  | 6.00 to 7.00 | 6.00 to 7.00
O=C(NCC1CC1c1ccccc1)[C@H]1CN(c2cnc3cncnc3n2)CCN1S(=O)(=O)c1ccc(OC(F)(F)F)cc1 (stereo partly drawn) [Example 849, (R)-4-pteridin-7-yl-1-(4-trifluoromethoxy-benzenesulfonyl)-piperazine-2-carboxylic acid (2-phenyl-cyclopropylmethyl)-amide] |  |  | > 7.00 | 6.00 to 7.00
Cc1nc(N2CCN(S(=O)(=O)c3ccc(C(F)(F)F)cc3)[C@@H](C(=O)NCc3ccc(C(C)C)cc3)C2)sc1C(=O)OC(C)(C)C [Example 5, 2-[(R)-3-(4-isopropyl-benzylcarbamoyl)-4-(4-trifluoromethyl-benzenesulfonyl)-piperazin-1-yl]-4-methyl-thiazole-5-carboxylic acid tert-butyl ester] | < 6.00 | < 6.00 |  | 
CCCn1cc(CNC(=O)[C@H]2CN(C(C)=O)CCN2S(=O)(=O)c2ccc(OC(F)(F)F)cc2)cn1 [Example 703, (R)-4-acetyl-1-(4-trifluoromethoxy-benzenesulfonyl)-piperazine-2-carboxylic acid (1-propyl-1H-pyrazol-4-ylmethyl)-amide] |  |  | < 6.00 | < 6.00
CC(C)c1ccc(CNC(=O)[C@H]2CN(c3cnc(C(=O)O)cn3)CCN2S(=O)(=O)c2ccc(C(F)(F)F)cc2)cc1 [Example 9, (R)-3-(4-isopropyl-benzylcarbamoyl)-4-(4-trifluoromethyl-benzenesulfonyl)-3,4,5,6-tetrahydro-2H-[1,2′]bipyrazinyl-5′-carboxylic acid] | > 7.00 | > 7.00 |  | 
CC(=O)N1CCN(S(=O)(=O)c2ccc(C(C)C)cc2)[C@@H](C(=O)NCc2ccc(C(C)C)cc2Cl)C1 [Example 183, (R)-4-acetyl-1-(4-isopropyl-benzenesulfonyl)-piperazine-2-carboxylic acid 2-chloro-4-isopropyl-benzylamide] | 6.00 to 7.00 | 6.00 to 7.00 |  | 
CC(C)c1ccc(CNC(=O)[C@H]2CN(c3ccc(C(=O)O)cn3)CCN2S(=O)(=O)c2ccc(C(F)(F)F)cc2)cc1 [Example 327, 6-[(R)-3-(4-isopropyl-benzylcarbamoyl)-4-(4-trifluoromethyl-benzenesulfonyl)-piperazin-1-yl]-nicotinic acid trifluoroacetate] | > 7.00 | > 7.00 |  | 
O=C(NCc1ccc(OC(F)F)cc1)[C@H]1CN(c2nc3nc(C4CC4)ncc3s2)CCN1S(=O)(=O)c1ccc(C(F)(F)F)cc1 [Example 1023, (R)-4-(5-cyclopropyl-thiazolo[4,5-d]pyrimidin-2-yl)-1-(4-trifluoromethyl-benzenesulfonyl)-piperazine-2-carboxylic acid 4-difluoromethoxy-benzylamide] |  |  | > 7.00 | > 7.00
O=C(NCc1ccc(OC(F)(F)F)cc1)[C@H]1CNCCN1S(=O)(=O)c1ccc(OC(F)(F)F)cc1 [Example 783, (R)-1-(4-trifluoromethoxy-benzenesulfonyl)-piperazine-2-carboxylic acid 4-trifluoromethoxy-benzylamide] |  |  | < 6.00 | < 6.00
